The results in this text go back to ChEMBL document CHEMBL5442219.

As a reminder, the inhibition is the change of the read-out against control, counted positive when it falls.

Common to all, as to conditions: Compound concentration 10 µM
In test [1] the target is Beta-2 adrenergic receptor (Homo sapiens) (UniProt P07550).
Description: PDSP Primary Binding target: ADRB2 - Compounds are tested at 10 uM concentration, plate are incubated at room temperature in the dark for 90 minutes. Reaction are stopped by vacuum filtration onto 0.3% polyethyleneimine soaked filter mats using Filtermate harvester. Scintilation cocktail is then melted onto microwave-dried filters on a hot plate and the radio activity is counted in Microbia counter.
The target in test [2] is T1, Muscarinic acetylcholine receptor M1 (Homo sapiens) (UniProt P11229).
T1 sequence (whole entry): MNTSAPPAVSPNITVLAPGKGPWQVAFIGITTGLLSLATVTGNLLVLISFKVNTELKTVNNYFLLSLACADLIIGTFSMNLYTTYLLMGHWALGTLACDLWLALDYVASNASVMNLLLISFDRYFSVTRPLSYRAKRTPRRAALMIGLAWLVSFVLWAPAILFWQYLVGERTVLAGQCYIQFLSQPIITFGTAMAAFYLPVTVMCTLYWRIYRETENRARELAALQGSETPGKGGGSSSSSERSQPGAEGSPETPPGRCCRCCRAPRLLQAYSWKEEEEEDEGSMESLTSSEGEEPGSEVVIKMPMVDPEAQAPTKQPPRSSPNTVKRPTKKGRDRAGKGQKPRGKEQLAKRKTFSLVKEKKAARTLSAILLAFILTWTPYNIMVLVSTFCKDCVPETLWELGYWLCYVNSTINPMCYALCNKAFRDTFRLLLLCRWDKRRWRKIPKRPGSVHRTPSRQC
Description: PDSP Primary Binding target: CHRM1 - Compounds are tested at 10 uM concentration, plate are incubated at room temperature in the dark for 90 minutes. Reaction are stopped by vacuum filtration onto 0.3% polyethyleneimine soaked filter mats using Filtermate harvester. Scintilation cocktail is then melted onto microwave-dried filters on a hot plate and the radio activity is counted in Microbia counter.

For test [3], the target named is D(1A) dopamine receptor (Homo sapiens) (UniProt P21728).
D(1A) dopamine receptor (Homo sapiens), sequence (P21728 whole entry): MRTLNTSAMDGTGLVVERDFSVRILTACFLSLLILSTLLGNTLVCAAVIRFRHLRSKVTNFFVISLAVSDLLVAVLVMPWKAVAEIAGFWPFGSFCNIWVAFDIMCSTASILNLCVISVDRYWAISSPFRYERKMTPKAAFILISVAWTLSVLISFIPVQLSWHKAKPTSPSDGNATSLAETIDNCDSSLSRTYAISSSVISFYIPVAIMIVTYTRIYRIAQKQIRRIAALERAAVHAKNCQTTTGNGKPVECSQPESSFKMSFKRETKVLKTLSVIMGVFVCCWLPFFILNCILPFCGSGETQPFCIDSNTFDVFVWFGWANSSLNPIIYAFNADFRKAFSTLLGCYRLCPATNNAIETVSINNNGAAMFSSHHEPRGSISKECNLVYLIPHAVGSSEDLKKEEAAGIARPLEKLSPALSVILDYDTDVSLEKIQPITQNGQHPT
Description: PDSP Primary Binding target: DRD1 - Compounds are tested at 10 uM concentration, plate are incubated at room temperature in the dark for 90 minutes. Reaction are stopped by vacuum filtration onto 0.3% polyethyleneimine soaked filter mats using Filtermate harvester. Scintilation cocktail is then melted onto microwave-dried filters on a hot plate and the radio activity is counted in Microbia counter.
Test [4] deals with D(2) dopamine receptor (Homo sapiens) (UniProt P14416).
Description: PDSP Primary Binding target: DRD2 - Compounds are tested at 10 uM concentration, plate are incubated at room temperature in the dark for 90 minutes. Reaction are stopped by vacuum filtration onto 0.3% polyethyleneimine soaked filter mats using Filtermate harvester. Scintilation cocktail is then melted onto microwave-dried filters on a hot plate and the radio activity is counted in Microbia counter.
The target in test [5] is D(1B) dopamine receptor (Homo sapiens) (UniProt P21918).
Description: PDSP Primary Binding target: DRD5 - Compounds are tested at 10 uM concentration, plate are incubated at room temperature in the dark for 90 minutes. Reaction are stopped by vacuum filtration onto 0.3% polyethyleneimine soaked filter mats using Filtermate harvester. Scintilation cocktail is then melted onto microwave-dried filters on a hot plate and the radio activity is counted in Microbia counter.
For test [6], the target named is 5-hydroxytryptamine receptor 2A (Homo sapiens) (UniProt P28223).
5-hydroxytryptamine receptor 2A (Homo sapiens), sequence (P28223 whole entry): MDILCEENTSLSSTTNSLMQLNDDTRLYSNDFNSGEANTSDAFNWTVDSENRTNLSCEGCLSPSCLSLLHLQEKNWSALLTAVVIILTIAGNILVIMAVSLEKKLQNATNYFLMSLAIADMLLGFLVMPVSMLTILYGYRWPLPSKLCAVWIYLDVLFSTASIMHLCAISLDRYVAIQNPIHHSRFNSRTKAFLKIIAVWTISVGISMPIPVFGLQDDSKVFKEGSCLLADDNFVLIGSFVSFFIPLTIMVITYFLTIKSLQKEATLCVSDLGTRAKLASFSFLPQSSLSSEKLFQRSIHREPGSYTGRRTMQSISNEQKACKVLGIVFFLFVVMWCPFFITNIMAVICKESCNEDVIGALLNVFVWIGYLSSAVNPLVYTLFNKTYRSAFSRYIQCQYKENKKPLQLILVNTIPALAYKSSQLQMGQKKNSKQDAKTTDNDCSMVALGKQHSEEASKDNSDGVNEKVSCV
Description: PDSP Primary Binding target: HTR2A - Compounds are tested at 10 uM concentration, plate are incubated at room temperature in the dark for 90 minutes. Reaction are stopped by vacuum filtration onto 0.3% polyethyleneimine soaked filter mats using Filtermate harvester. Scintilation cocktail is then melted onto microwave-dried filters on a hot plate and the radio activity is counted in Microbia counter.
Test [7] has as its target 5-hydroxytryptamine receptor 2B (Homo sapiens) (UniProt P41595).
Description: PDSP Primary Binding target: HTR2B - Compounds are tested at 10 uM concentration, plate are incubated at room temperature in the dark for 90 minutes. Reaction are stopped by vacuum filtration onto 0.3% polyethyleneimine soaked filter mats using Filtermate harvester. Scintilation cocktail is then melted onto microwave-dried filters on a hot plate and the radio activity is counted in Microbia counter.
For test [8], the target named is T2, 5-hydroxytryptamine receptor 2C (Homo sapiens) (UniProt P28335).
T2 sequence (whole entry): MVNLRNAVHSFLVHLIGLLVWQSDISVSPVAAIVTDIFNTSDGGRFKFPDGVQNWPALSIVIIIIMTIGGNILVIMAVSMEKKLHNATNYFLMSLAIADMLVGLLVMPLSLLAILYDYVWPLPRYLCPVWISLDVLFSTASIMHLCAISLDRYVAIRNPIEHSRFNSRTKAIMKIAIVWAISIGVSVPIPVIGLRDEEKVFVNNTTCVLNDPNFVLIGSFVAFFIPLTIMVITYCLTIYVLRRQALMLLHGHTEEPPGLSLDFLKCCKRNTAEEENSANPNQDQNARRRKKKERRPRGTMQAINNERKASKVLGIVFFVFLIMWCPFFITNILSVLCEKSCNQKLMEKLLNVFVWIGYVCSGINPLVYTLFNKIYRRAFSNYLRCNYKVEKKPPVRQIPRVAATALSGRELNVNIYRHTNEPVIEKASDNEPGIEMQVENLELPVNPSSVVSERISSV
Description: PDSP Primary Binding target: HTR2C - Compounds are tested at 10 uM concentration, plate are incubated at room temperature in the dark for 90 minutes. Reaction are stopped by vacuum filtration onto 0.3% polyethyleneimine soaked filter mats using Filtermate harvester. Scintilation cocktail is then melted onto microwave-dried filters on a hot plate and the radio activity is counted in Microbia counter.

In test [9] the target is Kappa-type opioid receptor (Homo sapiens) (UniProt P41145).
Kappa-type opioid receptor (Homo sapiens), sequence (P41145 whole entry): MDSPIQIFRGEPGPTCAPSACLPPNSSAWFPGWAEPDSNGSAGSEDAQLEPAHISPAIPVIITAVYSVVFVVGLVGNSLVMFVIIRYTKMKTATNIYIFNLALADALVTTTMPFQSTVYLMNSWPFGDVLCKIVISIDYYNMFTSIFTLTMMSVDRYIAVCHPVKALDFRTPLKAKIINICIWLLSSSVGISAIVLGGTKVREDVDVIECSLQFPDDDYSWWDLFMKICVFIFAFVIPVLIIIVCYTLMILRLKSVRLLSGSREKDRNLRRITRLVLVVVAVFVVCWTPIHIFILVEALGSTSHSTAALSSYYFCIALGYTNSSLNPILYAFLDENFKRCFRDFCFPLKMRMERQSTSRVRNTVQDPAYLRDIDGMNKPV
Description: PDSP Primary Binding target: OPRK1 - Compounds are tested at 10 uM concentration, plate are incubated at room temperature in the dark for 90 minutes. Reaction are stopped by vacuum filtration onto 0.3% polyethyleneimine soaked filter mats using Filtermate harvester. Scintilation cocktail is then melted onto microwave-dried filters on a hot plate and the radio activity is counted in Microbia counter.
Test [10] deals with Mu-type opioid receptor (Homo sapiens) (UniProt P35372).
Description: PDSP Primary Binding target: OPRM1 - Compounds are tested at 10 uM concentration, plate are incubated at room temperature in the dark for 90 minutes. Reaction are stopped by vacuum filtration onto 0.3% polyethyleneimine soaked filter mats using Filtermate harvester. Scintilation cocktail is then melted onto microwave-dried filters on a hot plate and the radio activity is counted in Microbia counter.
Test [11] deals with Sigma non-opioid intracellular receptor 1 (Homo sapiens) (UniProt Q99720).
Sigma non-opioid intracellular receptor 1 (Homo sapiens), sequence (Q99720 whole entry): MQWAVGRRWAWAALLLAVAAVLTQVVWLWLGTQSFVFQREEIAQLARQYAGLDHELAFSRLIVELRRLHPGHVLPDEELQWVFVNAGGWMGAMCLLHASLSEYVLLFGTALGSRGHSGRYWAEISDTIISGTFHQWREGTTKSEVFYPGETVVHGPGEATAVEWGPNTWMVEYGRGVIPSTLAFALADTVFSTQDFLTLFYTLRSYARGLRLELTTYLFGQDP
Description: PDSP Primary Binding target: SIGMAR1 - Compounds are tested at 10 uM concentration, plate are incubated at room temperature in the dark for 90 minutes. Reaction are stopped by vacuum filtration onto 0.3% polyethyleneimine soaked filter mats using Filtermate harvester. Scintilation cocktail is then melted onto microwave-dried filters on a hot plate and the radio activity is counted in Microbia counter.
Test [12] concerns the target Sodium-dependent dopamine transporter (Homo sapiens) (UniProt Q01959).
Description: PDSP Primary Binding target: SLC6A3 - Compounds are tested at 10 uM concentration, plate are incubated at room temperature in the dark for 90 minutes. Reaction are stopped by vacuum filtration onto 0.3% polyethyleneimine soaked filter mats using Filtermate harvester. Scintilation cocktail is then melted onto microwave-dried filters on a hot plate and the radio activity is counted in Microbia counter.
For test [13], the target named is Beta-3 adrenergic receptor (Homo sapiens) (UniProt P13945).
Beta-3 adrenergic receptor (Homo sapiens), sequence (P13945 whole entry, looked up): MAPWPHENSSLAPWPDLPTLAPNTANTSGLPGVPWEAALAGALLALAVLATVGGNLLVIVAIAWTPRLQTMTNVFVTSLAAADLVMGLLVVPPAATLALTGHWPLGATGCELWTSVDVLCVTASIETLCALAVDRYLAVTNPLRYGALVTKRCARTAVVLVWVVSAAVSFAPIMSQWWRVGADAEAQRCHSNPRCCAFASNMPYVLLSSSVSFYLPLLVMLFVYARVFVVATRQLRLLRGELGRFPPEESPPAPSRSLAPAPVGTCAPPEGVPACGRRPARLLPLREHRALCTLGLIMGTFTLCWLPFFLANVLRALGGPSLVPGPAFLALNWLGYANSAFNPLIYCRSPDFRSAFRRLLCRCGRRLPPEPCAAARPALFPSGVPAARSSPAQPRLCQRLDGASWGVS
Description: PDSP Primary Binding target: ADRB3 - Compounds are tested at 10 uM concentration, plate are incubated at room temperature in the dark for 90 minutes. Reaction are stopped by vacuum filtration onto 0.3% polyethyleneimine soaked filter mats using Filtermate harvester. Scintilation cocktail is then melted onto microwave-dried filters on a hot plate and the radio activity is counted in Microbia counter.
The target of test [14] is Histamine H2 receptor (Homo sapiens) (UniProt P25021).
Histamine H2 receptor (Homo sapiens), sequence (P25021 whole entry): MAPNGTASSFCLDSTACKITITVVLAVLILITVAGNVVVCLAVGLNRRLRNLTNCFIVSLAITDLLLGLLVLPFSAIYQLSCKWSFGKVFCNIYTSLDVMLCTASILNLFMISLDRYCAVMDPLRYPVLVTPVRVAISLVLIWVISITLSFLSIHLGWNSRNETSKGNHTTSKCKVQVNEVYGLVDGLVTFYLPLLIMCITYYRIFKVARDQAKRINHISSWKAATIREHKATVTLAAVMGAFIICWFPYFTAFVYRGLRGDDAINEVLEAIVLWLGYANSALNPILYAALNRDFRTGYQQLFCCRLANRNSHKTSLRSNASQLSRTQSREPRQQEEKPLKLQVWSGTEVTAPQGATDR
Description: PDSP Primary Binding target: HRH2 - Compounds are tested at 10 uM concentration, plate are incubated at room temperature in the dark for 90 minutes. Reaction are stopped by vacuum filtration onto 0.3% polyethyleneimine soaked filter mats using Filtermate harvester. Scintilation cocktail is then melted onto microwave-dried filters on a hot plate and the radio activity is counted in Microbia counter.
Test [15] deals with Translocator protein (Homo sapiens) (UniProt P30536).
Translocator protein (Homo sapiens), sequence (P30536 whole entry): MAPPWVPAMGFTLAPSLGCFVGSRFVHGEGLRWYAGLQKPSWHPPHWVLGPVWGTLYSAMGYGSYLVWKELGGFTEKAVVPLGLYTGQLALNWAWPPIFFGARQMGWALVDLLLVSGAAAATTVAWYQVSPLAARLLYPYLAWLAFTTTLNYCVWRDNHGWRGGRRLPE
Description: PDSP Primary Binding target: TSPO - Compounds are tested at 10 uM concentration, plate are incubated at room temperature in the dark for 90 minutes. Reaction are stopped by vacuum filtration onto 0.3% polyethyleneimine soaked filter mats using Filtermate harvester. Scintilation cocktail is then melted onto microwave-dried filters on a hot plate and the radio activity is counted in Microbia counter.
Test [16] deals with T3, Alpha-2B adrenergic receptor (Homo sapiens) (UniProt P18089).
T3 sequence (whole entry): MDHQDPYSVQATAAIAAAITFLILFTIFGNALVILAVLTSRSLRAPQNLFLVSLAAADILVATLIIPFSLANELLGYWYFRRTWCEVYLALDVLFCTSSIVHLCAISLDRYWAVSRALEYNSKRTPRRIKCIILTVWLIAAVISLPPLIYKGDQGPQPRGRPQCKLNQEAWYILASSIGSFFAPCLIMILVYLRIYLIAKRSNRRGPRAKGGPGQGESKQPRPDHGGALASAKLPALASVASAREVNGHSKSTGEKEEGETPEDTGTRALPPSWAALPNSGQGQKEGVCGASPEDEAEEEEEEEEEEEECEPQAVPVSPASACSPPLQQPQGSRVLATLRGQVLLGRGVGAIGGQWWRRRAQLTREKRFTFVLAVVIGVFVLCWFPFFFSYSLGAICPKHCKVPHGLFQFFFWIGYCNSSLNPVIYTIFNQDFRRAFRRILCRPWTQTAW
Description: PDSP Primary Binding target: ADRA2B - Compounds are tested at 10 uM concentration, plate are incubated at room temperature in the dark for 90 minutes. Reaction are stopped by vacuum filtration onto 0.3% polyethyleneimine soaked filter mats using Filtermate harvester. Scintilation cocktail is then melted onto microwave-dried filters on a hot plate and the radio activity is counted in Microbia counter.

Test [17] concerns the target Beta-1 adrenergic receptor (Homo sapiens) (UniProt P08588).
Description: PDSP Primary Binding target: ADRB1 - Compounds are tested at 10 uM concentration, plate are incubated at room temperature in the dark for 90 minutes. Reaction are stopped by vacuum filtration onto 0.3% polyethyleneimine soaked filter mats using Filtermate harvester. Scintilation cocktail is then melted onto microwave-dried filters on a hot plate and the radio activity is counted in Microbia counter.
In test [18] the target is T4, Muscarinic acetylcholine receptor M5 (Homo sapiens) (UniProt P08912).
T4 sequence (whole entry): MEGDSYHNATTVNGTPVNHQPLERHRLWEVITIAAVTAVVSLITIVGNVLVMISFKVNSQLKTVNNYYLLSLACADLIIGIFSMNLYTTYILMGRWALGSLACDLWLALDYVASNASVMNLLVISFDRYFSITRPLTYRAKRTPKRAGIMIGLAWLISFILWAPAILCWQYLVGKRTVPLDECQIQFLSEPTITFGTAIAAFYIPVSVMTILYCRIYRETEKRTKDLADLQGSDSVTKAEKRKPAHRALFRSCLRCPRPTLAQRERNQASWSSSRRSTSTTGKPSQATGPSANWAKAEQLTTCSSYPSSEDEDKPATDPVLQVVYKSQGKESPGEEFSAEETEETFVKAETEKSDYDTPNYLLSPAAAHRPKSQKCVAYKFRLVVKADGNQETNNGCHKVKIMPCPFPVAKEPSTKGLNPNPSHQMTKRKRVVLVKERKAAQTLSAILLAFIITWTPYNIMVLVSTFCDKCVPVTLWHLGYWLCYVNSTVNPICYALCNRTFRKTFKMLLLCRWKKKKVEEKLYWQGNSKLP
Description: PDSP Primary Binding target: CHRM5 - Compounds are tested at 10 uM concentration, plate are incubated at room temperature in the dark for 90 minutes. Reaction are stopped by vacuum filtration onto 0.3% polyethyleneimine soaked filter mats using Filtermate harvester. Scintilation cocktail is then melted onto microwave-dried filters on a hot plate and the radio activity is counted in Microbia counter.

In test [19] the target is 5-hydroxytryptamine receptor 1B (Homo sapiens) (UniProt P28222).
5-hydroxytryptamine receptor 1B (Homo sapiens), sequence (P28222 whole entry): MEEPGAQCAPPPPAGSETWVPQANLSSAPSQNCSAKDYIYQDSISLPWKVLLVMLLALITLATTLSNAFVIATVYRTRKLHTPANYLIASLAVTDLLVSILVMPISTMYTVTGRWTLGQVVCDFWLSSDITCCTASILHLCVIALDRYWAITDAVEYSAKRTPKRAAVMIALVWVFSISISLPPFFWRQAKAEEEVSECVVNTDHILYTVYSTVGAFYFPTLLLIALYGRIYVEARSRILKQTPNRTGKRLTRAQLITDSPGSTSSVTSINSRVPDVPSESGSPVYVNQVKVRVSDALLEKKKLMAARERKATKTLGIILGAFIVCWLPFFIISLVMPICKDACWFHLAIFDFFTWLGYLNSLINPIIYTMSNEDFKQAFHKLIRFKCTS
Description: PDSP Primary Binding target: HTR1B - Compounds are tested at 10 uM concentration, plate are incubated at room temperature in the dark for 90 minutes. Reaction are stopped by vacuum filtration onto 0.3% polyethyleneimine soaked filter mats using Filtermate harvester. Scintilation cocktail is then melted onto microwave-dried filters on a hot plate and the radio activity is counted in Microbia counter.
For test [20], the target named is 5-hydroxytryptamine receptor 1D (Homo sapiens) (UniProt P28221).
5-hydroxytryptamine receptor 1D (Homo sapiens), sequence (P28221 whole entry): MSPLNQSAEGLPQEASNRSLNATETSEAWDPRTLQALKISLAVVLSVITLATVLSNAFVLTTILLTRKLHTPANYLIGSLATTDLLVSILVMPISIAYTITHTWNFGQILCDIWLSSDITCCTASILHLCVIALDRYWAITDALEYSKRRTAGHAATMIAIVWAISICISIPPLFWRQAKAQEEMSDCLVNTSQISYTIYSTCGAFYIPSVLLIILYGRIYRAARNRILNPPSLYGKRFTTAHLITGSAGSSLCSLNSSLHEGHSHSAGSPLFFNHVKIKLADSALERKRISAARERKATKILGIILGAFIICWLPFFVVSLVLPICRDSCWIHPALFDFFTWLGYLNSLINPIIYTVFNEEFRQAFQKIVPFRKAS
Description: PDSP Primary Binding target: HTR1D - Compounds are tested at 10 uM concentration, plate are incubated at room temperature in the dark for 90 minutes. Reaction are stopped by vacuum filtration onto 0.3% polyethyleneimine soaked filter mats using Filtermate harvester. Scintilation cocktail is then melted onto microwave-dried filters on a hot plate and the radio activity is counted in Microbia counter.
For test [21], the target named is Sigma intracellular receptor 2 (Homo sapiens) (UniProt Q5BJF2).
Sigma intracellular receptor 2 (Homo sapiens), sequence (Q5BJF2 whole entry): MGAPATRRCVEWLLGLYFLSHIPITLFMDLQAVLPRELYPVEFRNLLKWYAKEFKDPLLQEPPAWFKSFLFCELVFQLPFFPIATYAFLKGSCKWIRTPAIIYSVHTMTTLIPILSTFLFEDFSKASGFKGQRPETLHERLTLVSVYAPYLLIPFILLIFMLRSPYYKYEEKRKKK
Description: PDSP Primary Binding target: TMEM97 - Compounds are tested at 10 uM concentration, plate are incubated at room temperature in the dark for 90 minutes. Reaction are stopped by vacuum filtration onto 0.3% polyethyleneimine soaked filter mats using Filtermate harvester. Scintilation cocktail is then melted onto microwave-dried filters on a hot plate and the radio activity is counted in Microbia counter.

Beta-2 adrenergic receptor (Homo sapiens), sequence (P07550 whole entry, looked up): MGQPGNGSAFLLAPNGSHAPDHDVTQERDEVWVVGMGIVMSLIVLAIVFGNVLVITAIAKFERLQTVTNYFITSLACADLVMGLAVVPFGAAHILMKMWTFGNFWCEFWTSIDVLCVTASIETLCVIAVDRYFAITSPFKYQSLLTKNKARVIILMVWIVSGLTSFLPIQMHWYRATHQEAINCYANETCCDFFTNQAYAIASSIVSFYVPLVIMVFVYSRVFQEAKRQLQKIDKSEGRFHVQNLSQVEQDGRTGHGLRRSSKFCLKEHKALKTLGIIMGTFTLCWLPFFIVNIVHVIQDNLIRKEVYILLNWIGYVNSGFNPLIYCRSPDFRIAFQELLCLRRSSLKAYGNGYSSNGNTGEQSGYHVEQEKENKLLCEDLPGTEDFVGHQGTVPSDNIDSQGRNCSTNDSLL
5-hydroxytryptamine receptor 2B (Homo sapiens), sequence (P41595 whole entry): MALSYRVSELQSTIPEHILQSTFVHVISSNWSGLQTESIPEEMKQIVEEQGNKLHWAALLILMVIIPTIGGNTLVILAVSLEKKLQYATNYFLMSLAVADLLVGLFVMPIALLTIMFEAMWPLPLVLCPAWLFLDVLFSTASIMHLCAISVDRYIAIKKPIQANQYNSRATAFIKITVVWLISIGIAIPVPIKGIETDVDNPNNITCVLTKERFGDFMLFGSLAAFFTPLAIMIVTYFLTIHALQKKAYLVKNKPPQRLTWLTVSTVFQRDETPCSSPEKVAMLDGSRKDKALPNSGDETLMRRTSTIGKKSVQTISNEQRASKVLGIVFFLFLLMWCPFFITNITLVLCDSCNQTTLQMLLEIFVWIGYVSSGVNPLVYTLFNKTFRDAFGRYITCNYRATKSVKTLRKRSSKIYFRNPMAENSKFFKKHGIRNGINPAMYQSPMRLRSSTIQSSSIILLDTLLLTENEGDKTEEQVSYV
Sodium-dependent dopamine transporter (Homo sapiens), sequence (Q01959 whole entry): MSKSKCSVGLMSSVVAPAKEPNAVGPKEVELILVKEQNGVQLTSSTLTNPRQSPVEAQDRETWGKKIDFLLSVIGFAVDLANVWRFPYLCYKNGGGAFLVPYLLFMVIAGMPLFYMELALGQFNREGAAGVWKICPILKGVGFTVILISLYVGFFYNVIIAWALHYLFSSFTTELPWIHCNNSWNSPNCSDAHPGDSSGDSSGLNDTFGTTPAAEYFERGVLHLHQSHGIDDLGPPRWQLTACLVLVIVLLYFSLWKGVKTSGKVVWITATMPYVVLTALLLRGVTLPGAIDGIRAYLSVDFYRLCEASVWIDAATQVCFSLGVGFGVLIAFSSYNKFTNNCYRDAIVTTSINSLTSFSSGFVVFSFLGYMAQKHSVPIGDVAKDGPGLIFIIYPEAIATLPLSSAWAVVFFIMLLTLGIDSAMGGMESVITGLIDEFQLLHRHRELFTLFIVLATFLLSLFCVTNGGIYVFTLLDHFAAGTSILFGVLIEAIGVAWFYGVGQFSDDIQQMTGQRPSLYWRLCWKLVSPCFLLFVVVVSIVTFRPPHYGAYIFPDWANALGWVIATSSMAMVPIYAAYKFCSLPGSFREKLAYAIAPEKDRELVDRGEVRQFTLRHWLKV

For the molecule `C[C@H](CO)Nc1nc(SCc2cccc(Cl)c2F)nc2[nH]c(=O)sc12`, the inhibition is 8.37% in test [1]; -2.82% in test [2]; -6.29% in test [3]; -1.75% in test [4]; -1.9% in test [5]; 7.55% in test [6]. The inhibition in test [7] was -6.11%; in test [8] it was 15%; in test [9] it was 11%; in [10], 10.8%; in test [11], 15.8%; in test [12] it was 8.96%. For the same molecule, the inhibition in [13] was -1.24%; in [14] it was 40%.
As for `O=C(O)CC/C=C\C[C@@H]1CO[C@H](c2ccccc2Cl)O[C@@H]1c1ccccc1O`, the inhibition in test [1] is -6.03%; in [3] it was -0.4%; in test [4], 4.25%; in test [5] it was -4.01%; in test [6] it was 3.61%; in [8], -5.63%. Further, the inhibition in test [9] is 5.7%; in test [10], 8.82%; in [11] it was -1.8%; in [15], 8.35%; in test [13], 29.5%; in test [14], 31.1%.
Consider `COc1ccc(C2(O)OC(=O)C(c3ccc4c(c3)OCO4)=C2Cc2cc(OC)c(OC)c(OC)c2)cc1` (stereo unspecified), for which the inhibition was -2.96% in [16]; -2.63% in test [17]; -8.77% in test [2]; 28.8% in test [18]; -7.61% in [3]; -2.26% in [4]. In addition, the inhibition is 2.7% in [19]; 21.7% in test [20]; 12.4% in test [6]; 9.13% in [9]; -4.54% in test [10]; 6.35% in test [11]. The inhibition is 27.4% in [12], 37% in test [15] and 24.4% in test [14].
Consider `Cc1cc(C)cc(C(=O)N(C)[C@H](Cc2ccc(-c3ccccc3)cc2)C(=O)N[C@@H](Cc2c[nH]c3ccccc23)C(=O)O)c1`, for which the inhibition in test [16] is 7.27%; in [1] it was 3.37%; in test [2], 12.5%; in test [6] it was 31.2%; in test [7], -6.62%; in test [9], 46.1%. For the same molecule, the inhibition was -1.4% in test [10]; -6.1% in test [11]; 32.2% in test [12]; 28.8% in test [15]; 34.4% in test [13]; 34.1% in [14].
`N#Cc1c(N)nc(SCC(N)=O)c(C#N)c1-c1ccc(OCC2CC2)cc1`: the inhibition in test [16] was -9.96%; in [2], 1.45%; in [18] it was 10.4%; in test [6], 28.7%; in test [7] it was 12.7%; in test [9] it was 89%. Besides, the inhibition in [10] is -0.63%; in [11], 62%; in test [12], 3.03%; in test [15], 39%; in test [14], 41.5%.
In the case of `O=C(Nc1ccc(Cl)cc1)Nc1cccc(-c2cccc(N3CCCC3)n2)c1`, the inhibition was 5.47% in [16]; 9.22% in test [2]; -5.29% in test [18]; 6.95% in test [3]; 8.25% in test [4]; 11% in test [6]. The inhibition in test [7] is 10.6%; in test [9] it was 7.04%; in test [10], -5.02%; in test [11], 47.3%; in test [12], 18.3%; in test [21] it was 6.97%. Besides, the figures for the inhibition in test [15] and in test [14] were 34.9% and 20%, respectively.
`N#Cc1ccc2[nH]cc(CCCCN3CCN(c4ccc5oc(C(N)=O)cc5c4)CC3)c2c1`: the inhibition in test [16] is 47.1%; in test [17], 11.6%; in [1] it was 56.2%; in test [2] it was 1.49%; in test [18], 30.6%; in [3], 22.6%. For the same molecule, the inhibition in [4] was 79.4%; in test [5], 36.9%; in test [19], 56.1%; in [20], 80%; in [6], 43%; in test [7] it was 101%. For the same molecule, the inhibition is 43.3% in test [8]; 30.6% in test [9]; 62.7% in [10]; 99.1% in test [11]; 99.5% in [12]; 80.3% in test [21]. In addition, the inhibition in test [15] is -4.35%.
As to `COC(=O)C1=C(C)NC(C)=C(C(=O)OCCCN2CCC(c3ccccc3)(c3ccccc3)CC2)[C@H]1c1cccc([N+](=O)[O-])c1`, the inhibition was 90% in test [16]; 31.8% in test [17]; 22.1% in test [1]; 30.9% in test [2]; 89.6% in test [18]; 80.7% in test [3]. The inhibition was 79.2% in test [4]; 51.8% in test [5]; 89.2% in test [19]; 75.9% in test [20]; -1.08% in test [6]; 83.2% in test [7]. The inhibition in [8] is 58.1%; in test [9], 95.6%; in [10] it was 92%; in test [11], 53.5%; in test [12], 89.7%; in test [21] it was 98.7%. Besides, in test [15], the inhibition is 79.8%.
